Experimental data reported in patent US8227604B2, “Hybrid 2-aminotetralin and aryl-substituted piperazine compounds and their use in altering CNS activity” (Wayne State University, priority 2001, dated 2012).
Where a name gives a salt, the structure may show the parent alone.

What was measured:
5HT2C receptor = molecular target: T1, 5HT2C receptor (Homo sapiens, UniProt P28335); experiment: Binding affinity at cloned human 5HT2C receptor, [3H]Mesulergine
T1 construct: expressed in transfected cells
T1 sequence (P28335 33-458): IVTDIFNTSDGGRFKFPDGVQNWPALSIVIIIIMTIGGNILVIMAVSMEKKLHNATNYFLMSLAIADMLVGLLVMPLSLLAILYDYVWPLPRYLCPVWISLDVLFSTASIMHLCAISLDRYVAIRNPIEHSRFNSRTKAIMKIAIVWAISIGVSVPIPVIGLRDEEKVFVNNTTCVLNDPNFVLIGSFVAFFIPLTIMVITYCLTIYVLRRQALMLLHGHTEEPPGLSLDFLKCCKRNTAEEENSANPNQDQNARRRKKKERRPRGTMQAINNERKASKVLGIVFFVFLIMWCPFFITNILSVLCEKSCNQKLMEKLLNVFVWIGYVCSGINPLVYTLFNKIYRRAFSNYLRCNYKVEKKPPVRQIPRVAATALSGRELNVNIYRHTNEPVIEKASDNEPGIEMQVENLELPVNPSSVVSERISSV

5HT2A receptor = molecular target: T2, 5HT2A receptor (Homo sapiens, UniProt P28223); experiment: Binding affinity at cloned human 5HT2A receptor, [3H]Ketanserin
T2 construct: expressed in transfected cells
T2 sequence (P28223 whole entry): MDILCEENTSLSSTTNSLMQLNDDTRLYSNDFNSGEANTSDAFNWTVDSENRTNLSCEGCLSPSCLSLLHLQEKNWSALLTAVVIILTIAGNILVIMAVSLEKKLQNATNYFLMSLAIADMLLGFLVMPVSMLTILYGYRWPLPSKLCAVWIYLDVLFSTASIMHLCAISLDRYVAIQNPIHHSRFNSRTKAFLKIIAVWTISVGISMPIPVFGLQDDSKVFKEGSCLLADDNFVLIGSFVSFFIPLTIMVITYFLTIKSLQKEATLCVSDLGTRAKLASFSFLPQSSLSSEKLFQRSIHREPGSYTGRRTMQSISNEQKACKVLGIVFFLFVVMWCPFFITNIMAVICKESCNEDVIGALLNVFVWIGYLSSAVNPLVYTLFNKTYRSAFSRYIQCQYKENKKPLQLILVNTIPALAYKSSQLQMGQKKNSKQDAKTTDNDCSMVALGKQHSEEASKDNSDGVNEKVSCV

5HT1A receptor = molecular target: T3, 5HT1A receptor (Homo sapiens, UniProt P08908); experiment: Binding affinity at cloned human 5HT1A receptor, [3H]8-OH-DPAT (HA7 cells)
T3 construct: expressed in transfected cells; host or cells: HA7 cells
T3 sequence (P08908 1-422): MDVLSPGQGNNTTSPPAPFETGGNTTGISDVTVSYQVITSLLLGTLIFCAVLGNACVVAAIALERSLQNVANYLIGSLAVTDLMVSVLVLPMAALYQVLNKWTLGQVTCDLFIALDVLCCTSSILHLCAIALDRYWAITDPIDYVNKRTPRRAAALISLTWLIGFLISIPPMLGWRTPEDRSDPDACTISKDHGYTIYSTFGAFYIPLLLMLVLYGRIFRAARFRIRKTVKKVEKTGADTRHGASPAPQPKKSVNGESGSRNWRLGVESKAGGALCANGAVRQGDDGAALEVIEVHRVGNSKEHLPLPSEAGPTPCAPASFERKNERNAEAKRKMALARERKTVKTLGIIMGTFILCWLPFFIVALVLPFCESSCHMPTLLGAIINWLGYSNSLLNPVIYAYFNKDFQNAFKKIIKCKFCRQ
Method: HA7 cells (human receptor) are grown to confluence in DMEM containing 10% fetal calf serum, 0.05% penicillin-streptomycin (pen-strep), and […] of G418. The cells are scraped from the 100 by 20 mm plates and centrifuged at 500·G for 5 min. The pellet is homogenized in 50 mM Tris-HCl, pH 7.7, with a polytron, centrifuged at 27,000·G and resuspended at 10 mg protein/ml in the same buffer. The homogenate is then stored at −70° C. in 1-ml aliquots.
The thawed cells are washed once and resuspended at 10 mg protein/80 ml in 25 mM Tris-HCl containing 100 μM of ascorbic acid and 10 mM of nialamide at pH 7.4. The assay is performed in triplicate in a 96-well plate. To 100 μl of [^3H]8-OH-DPAT (0.5 nM final conc), […] of test compound or buffer and 0.8 ml of cell homogenate (0.1 mg protein/well) is added to each well by a Tomtec Quadra 96. Nonspecific binding is defined using 1 μM dihydroergotamine. The plates are incubated at 25° C. for 60 min, then filtered. The incubation is terminated by rapid filtration through glass fiber filter paper on a Tomtec cell harvester. The filters are washed four times with ice-cold 50 mM Tris-HCl, pH 7.7, dried overnight, bagged with 10 ml scintillation cocktail before counting for 2 min. on a Wallac Betaplate 1205 liquid scintillation counter.

D1 receptor = molecular target: T4, D1 receptor (Homo sapiens, UniProt P21728); experiment: Binding affinity at cloned human D1 receptor, [3H]SCH23390 (LHD1 cells)
T4 construct: expressed in transfected cells; host or cells: LHD1 cells
T4 sequence (P21728 whole entry): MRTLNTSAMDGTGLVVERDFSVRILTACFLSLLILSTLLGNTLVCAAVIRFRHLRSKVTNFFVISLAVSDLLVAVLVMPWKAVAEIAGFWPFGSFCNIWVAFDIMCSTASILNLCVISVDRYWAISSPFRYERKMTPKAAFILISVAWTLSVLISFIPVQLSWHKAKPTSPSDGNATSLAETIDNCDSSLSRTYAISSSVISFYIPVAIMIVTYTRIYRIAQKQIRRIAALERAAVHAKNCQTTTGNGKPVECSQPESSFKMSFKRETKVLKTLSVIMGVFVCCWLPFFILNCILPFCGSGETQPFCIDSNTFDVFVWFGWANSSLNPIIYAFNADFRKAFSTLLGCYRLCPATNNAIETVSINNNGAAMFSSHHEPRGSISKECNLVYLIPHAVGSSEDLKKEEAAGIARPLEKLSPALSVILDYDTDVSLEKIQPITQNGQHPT
Method: LHD1 cells (human receptor) are grown and prepared as described for the HA7 cells as described hereafter. The final pellet is resuspended at 5 mg protein/80 ml in 50 mM Tris-HCl containing 120 mM of NaCl, 5 mM of KCl, 2 mM of CaCl2, and 1 mM of MgCl2, pH 7.4. To wells containing 100 μl of test drug or buffer and […] of [^3H]SCH 23390 (0.18 nM final conc.), is added 0.8 ml of cell homogenate (0.05 mg protein/well), and the plates are incubated at […] for 60 min. Nonspecific binding is determined with 1 μM of SCH 23390.

D4 receptor [1] = molecular target: T5, D4 receptor (Homo sapiens, UniProt P21917); experiment: Agonist potency by [3H]thymidine incorporation (mitogenesis), D4; type: cell-based; design: expressed in transfected cells
T5 sequence (P21917 1-419): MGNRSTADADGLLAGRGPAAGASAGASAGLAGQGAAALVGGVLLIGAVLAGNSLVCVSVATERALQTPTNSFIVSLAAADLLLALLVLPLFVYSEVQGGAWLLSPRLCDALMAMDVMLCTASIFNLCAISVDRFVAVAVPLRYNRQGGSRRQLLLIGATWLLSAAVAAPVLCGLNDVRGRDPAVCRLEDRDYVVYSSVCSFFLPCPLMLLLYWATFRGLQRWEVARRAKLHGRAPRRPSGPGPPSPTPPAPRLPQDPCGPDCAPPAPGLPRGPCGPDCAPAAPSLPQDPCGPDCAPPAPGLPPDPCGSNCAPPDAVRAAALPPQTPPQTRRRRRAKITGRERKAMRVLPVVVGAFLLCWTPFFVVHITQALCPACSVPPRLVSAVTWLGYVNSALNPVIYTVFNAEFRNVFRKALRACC
Method: (§1) Potential as domaminergenic agonists was assayed by ^3H-thymidine incorporation by standard techniques.
The mitogenesis study results presented in Table 7 assay the ability of these ligands to act as agonists or antagonists. The EC50 values thus indicate intrinsic activities or functional activities of these compounds. The value of % maximum stimulation indicates whether a compound is a partial agonist or full agonist. Generally, a value greater than 80% is considered as a full agonist and anything less than 80% is considered as a partial agonist. A compound will be considered antagonist if it produces a negative result (no [3H]thymidine incorporation) in the assay. All the compounds reported in Table 7 are either full agonists or partial agonists.

D4 receptor [2] = molecular target: T5, D4 receptor; experiment: Binding affinity at cloned human D4 receptor, [3H]YM-09151-2 (CHO D4.4 cells); design: expressed in transfected cells; host or cells: CHO D4.4 cells
Method: CHO D4.4 cells (human receptors) are grown to confluence in D4 Puromycin medium containing 2 μg/ml puromycin, 5% fetal calf serum and 5 supplemented calf serum and 0.5% pen-strep. The cells are harvested as described for D2 and D3 cells and used at a concentration of 0.15 mg protein/well in the [^3H]YM-09151-2 binding assay.

D2 receptor = molecular target: T6, D2 receptor (Homo sapiens, UniProt P14416); experiment: Agonist potency by [3H]thymidine incorporation (mitogenesis), D2; type: cell-based; conditions: read-out: D2 % Maxm Stim
T6 construct: expressed in transfected cells
T6 sequence (P14416 whole entry): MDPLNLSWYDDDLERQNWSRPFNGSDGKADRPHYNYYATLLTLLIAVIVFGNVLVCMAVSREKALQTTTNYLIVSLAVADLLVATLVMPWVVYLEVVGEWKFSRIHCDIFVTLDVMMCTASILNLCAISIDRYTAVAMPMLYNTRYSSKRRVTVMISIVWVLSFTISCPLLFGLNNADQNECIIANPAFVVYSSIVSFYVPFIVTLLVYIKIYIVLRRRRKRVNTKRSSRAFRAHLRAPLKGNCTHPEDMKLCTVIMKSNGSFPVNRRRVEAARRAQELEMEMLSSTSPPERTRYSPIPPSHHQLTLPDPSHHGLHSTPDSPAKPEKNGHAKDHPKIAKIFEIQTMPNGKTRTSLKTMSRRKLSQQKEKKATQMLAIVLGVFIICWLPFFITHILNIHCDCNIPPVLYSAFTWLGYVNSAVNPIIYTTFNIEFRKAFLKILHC
Method: as §1
The EC50 values thus indicate intrinsic activities or functional activities of these compounds. The value of % maximum stimulation indicates whether a compound is a partial agonist or full agonist. Generally, a value greater than 80% is considered as a full agonist and anything less than 80% is considered as a partial agonist.

D2L receptor = molecular target: T7, D2L receptor (Homo sapiens, UniProt P14416); experiment: Inhibition constants for binding to cloned D2L receptor expressed in HEK cells, [3H]spiperone
T7 construct: expressed in transfected cells; host or cells: HEK cells
T7 sequence (P14416 whole entry): as above
Method: (§2) Inhibition constants for binding to cloned D2L and D3 receptors expressed in HEK cells by displacing [^3H] spiperone were measured for several compounds.

D3 receptor = D3 receptor (Homo sapiens, UniProt P35462); experiment: Inhibition constants for binding to cloned D3 receptor expressed in HEK cells, [3H]spiperone
Sequence of D3 receptor (P35462 whole entry): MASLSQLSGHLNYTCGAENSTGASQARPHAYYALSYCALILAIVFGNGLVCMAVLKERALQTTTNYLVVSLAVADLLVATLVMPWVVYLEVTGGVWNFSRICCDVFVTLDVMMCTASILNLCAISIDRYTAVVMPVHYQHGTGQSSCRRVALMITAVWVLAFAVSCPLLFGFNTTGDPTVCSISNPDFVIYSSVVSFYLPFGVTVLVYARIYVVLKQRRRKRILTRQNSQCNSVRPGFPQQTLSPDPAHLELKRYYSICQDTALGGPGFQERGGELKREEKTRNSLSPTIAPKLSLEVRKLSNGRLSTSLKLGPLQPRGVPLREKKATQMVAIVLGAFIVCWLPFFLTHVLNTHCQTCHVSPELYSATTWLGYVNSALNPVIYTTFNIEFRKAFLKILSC
Method: as §2

Structure (SMILES): C#CCN(CCCCN1CCN(c2ccccc2)CC1)C1CCc2ccc(O)cc2C1 (stereo not drawn) (as salt: HBr) [Compound 12b, 7-Hydroxy-2-[N-propargyl-(N-(4-phenylpiperazin-1-yl)-butyl)amino]tetralin]
- melting point: 182 to 186 °C

Structure (SMILES): CCCN(CCCCN1CCN(c2ccccc2)CC1)C1CCc2ccc(O)cc2C1 (stereo not drawn) (as salt: HBr) [Compound 15b, 7-Hydroxyl-2-[N-propyl-(N-(4-phenylpiperazin-1-yl)-butyl)amino]tetralin]
- melting point: 152 to 156 °C

Structure (SMILES): CCCN(CCCCN1CCN(c2cccc(Cl)c2Cl)CC1)C1CCc2ccc(O)cc2C1 (stereo not drawn) (as salt: HCl) [Compound 19a, 7-Hydroxy-2-[N-propyl-(N-(4-(2,3-dichlorophenyl)-piperazin-1-yl)-butyl)amino]tetralin]
- melting point: 155 to 159 °C

Structure (SMILES): C#CCN(CCCCN1CCN(c2cccc(Cl)c2Cl)CC1)C1CCc2ccc(O)cc2C1 (stereo not drawn) (as salt: HCl) [Compound 19b, 7-Hydroxy-2-[N-propargyl-(N-(4-(2,3-dichlorophenyl)-piperazin-1-yl)-butyl)amino]tetralin]
- melting point: 180 to 183 °C

Structure (SMILES): CCCN(CCN1CCN(c2ccccc2)CC1)C1CCc2nc(N)ncc2C1 (stereo not drawn) (as salt: HCl) [Compound 23, 2-Amino-6-[N-propyl-(N-(4-phenylpiperazin-1-yl)-ethyl)amino]-5,6,7,8-tetrahydrobenzopyrimidine]
- melting point: 97 to 102 °C

Structure (SMILES): CCCN(CCc1ccc(N)cc1)CCN1CCN(c2ccccc2)CC1 (as salt: hydrochloride) [Compound 29a, 4-(2-{[2-(4-Phenyl-piperazin-1-yl)-ethyl]-propyl-amino}-ethyl)-phenylamine]
- melting point: 262 to 264 °C

Structure (SMILES): CCCN(CCc1cccc(N)c1)CCN1CCN(c2ccccc2)CC1 (as salt: hydrochloride) [Compound 29b, 3-(2-{[2-(4-Phenyl-piperazin-1-yl)-ethyl]-propyl-amino}-ethyl)-phenylamine]
- melting point: 278 to 284 °C

Structure (SMILES): CCCN(CCc1ccc(NS(=O)(=O)c2ccc(Cl)cc2)cc1)CCN1CCN(c2ccccc2)CC1 (as salt: hydrochloride) [Compound 30a, 4-Chloro-N-[4-(2-{[2-(4-phenyl-piperazin-1-yl)-ethyl]-propyl-amino}-ethyl)-phenyl]-benzenesulfonamide]
- melting point: 224 to 226 °C

Structure (SMILES): CCCN(CCc1cccc(NS(=O)(=O)c2ccc(Cl)cc2)c1)CCN1CCN(c2ccccc2)CC1 (as salt: hydrochloride) [Compound 30b, 4-Chloro-N-[3-(2-{[2-(4-phenyl-piperazin-1-yl)-ethyl]-propyl-amino}-ethyl)-phenyl]-benzenesulfonamide]
- melting point: 220 to 224 °C

Structure (SMILES): CCCN(CCC)C1CCc2ccc(O)cc2C1 (stereo not drawn) [Compound 7-OH-DPAT, reference compound]
- Ki (5HT2C receptor): > 10000 nM
- Ki (5HT2A receptor): > 10000 nM
- Ki (5HT1A receptor): 193 ± 3.4 nM
- Ki (D1 receptor): 2550 ± 1080 nM

Structure (SMILES): C#CCN(CCCCN1CCN(c2ccccc2)CC1)C1CCc2ccc(O)cc2C1 (stereo not drawn) [Compound 12b, 7-Hydroxy-2-[N-propargyl-(N-(4-phenylpiperazin-1-yl)-butyl)amino]tetralin]
- EC50 (D4 receptor [1]; [3H]thymidine incorporation): 23.9 ± 3.57 nM
- D4 % Maxm Stim (D4 receptor [1]; [3H]thymidine incorporation, >80% full agonist): 85.15 ± 17.64%
- agonist character at the D4 receptor (D4 receptor [1]; functional assay): full agonists
- affinity at the D4 receptor (D4 receptor [2]): good affinity
- Ki (D4 receptor [2]; cloned human D4): 28.9 ± 4.41 nM
- Emax (D2 receptor): 85 ± 6.26%
- Ki (5HT2C receptor): 3220 ± 52.9 nM
- Ki (5HT2A receptor): 260 ± 41.9 nM
- Ki (5HT1A receptor): 15.2 ± 3.34 nM
- Ki (D1 receptor): 677 ± 34 nM

Structure (SMILES): CCCN(CCN1CCN(c2ccccc2)CC1)C1CCc2nc(N)ncc2C1 (stereo not drawn) [Compound 23, 2-Amino-6-[N-propyl-(N-(4-phenylpiperazin-1-yl)-ethyl)amino]-5,6,7,8-tetrahydrobenzopyrimidine]
- Ki (D2L receptor): 1120 ± 144 nM

Structure (SMILES): CCCN(CCN1CCN(c2ccccc2)CC1)C1CCc2sc(N)nc2C1 (stereo not drawn) [Compound 25, 2-Amino-5-[N-propyl-(N-(4-phenylpiperazin-1-yl)-ethyl)amino]-4,5,6,7-tetrahydrobenzothiazole]
- Ki (D2L receptor): 2080 ± 162 nM
- Ki (D3 receptor; D3 expressed in HEK cells): 4.14 ± 0.55 nM
- D2L/D3 (D3 receptor; ratio of Ki D2L to Ki D3, HEK cells, [3H]spiperone): 502
